Values quoted from earlier work as cited in patent US20080102137A1, “Composition and method for etiological treatment and prevention of diseases and/or complications associated with chronic glucose metabolism destabilization” (priority 2006, published 2008).

Experiments:
[1] = 600 mg synthetic α-tocopherol daily for 14 days, diabetic individuals
blood platelet = blood platelet assay
fat cells = settings: test tube assay of fat cells
[2] = patients with panic disorders

## CN(C)C(=N)N=C(N)N [Metformin]
average
  lowers fasting blood glucose levels: 25%
Cases of metabolic syndrome
  reduces raised plasma insulin levels: ≤ 30%
In vivo
  lowers postprandial blood glucose: up to 44.5%

## Cc1c(C)c2c(c(C)c1O)CC[C@@](C)(CCC[C@H](C)CCC[C@H](C)CCCC(C)C)O2 [α-tocopherol]
[1]
  biochemical marker of oxidative stress: reduction in the oxidative stress marker

## methylhydroxy chalcone polymer [MHCP]
Blood platelet
  formation of damaging oxygen radicals: prevented the formation of damaging oxygen radicals
Fat cells
  increased glucose metabolism: roughly 20 fold

## O[C@H]1[C@H](O)[C@@H](O)[C@H](O)[C@@H](O)[C@H]1O [inositol]
[2]
  frequency and severity of panic attacks: reduction in the frequency and severity of panic attacks
